Results: ChEMBL document CHEMBL5620416, “Design, synthesis and development of a dual inhibitor of Topoisomerase 1 and poly (ADP-ribose) polymerase 1 for efficient killing of cancer cells” (Eur J Med Chem, 2023)
Calls of active or inactive are those of the source. The rule behind the calls is not given here.

How the values were obtained:
MIA PaCa-2 [1] = experiment: Cytotoxicity against human MIA PaCa-2 cells at less than 10 uM incubated for 7 to 10 days by crystal violet staining based assay; type: functional, cell-based; details: time 7-10 day
HCT-116 [2] = experiment: Induction of cell cycle arrest in human HCT-116 cells assessed as accumulation of cells at Sub-G1 phase at 5 uM incubated for 48 hrs by PI staining based flow cytometry analysis (reference value: 2.7 +/- 0.4%); type: functional
HCT-116 [3] = experiment: Induction of cell cycle arrest in human HCT-116 cells assessed as accumulation of cells at S phase at 20 uM incubated for 48 hrs by PI staining based flow cytometry analysis (reference value: 17%); type: functional
HCT-116 [4] = experiment: Induction of PARylation in human HCT-116 cells at 20 uM incubated for 2 to 8 hrs by Western blotting analysis; type: functional, cell-based; details: time 2-8 hrs
[5] = system: DNA topoisomerase 1/Deoxyribonucleic acid (Homo sapiens); experiment: Induction of TOP1-DNA covalent complex stabilization in human HCT-116 cells after 2 to 6 hrs by RADAR assay; type: cell-based; details: dose 10-20 µM, time 2-6 hrs
HCT-116 [6] = experiment: Cytotoxicity against human HCT-116 cells at less than 10 uM incubated for 7 to 10 days by crystal violet staining based assay; type: functional, cell-based; details: time 7-10 day
HCT-116 [7] = experiment: Induction of cell cycle arrest in human HCT-116 cells assessed as accumulation of cells at Sub-G1 phase at 5 uM incubated for 24 hrs by PI staining based flow cytometry analysis (reference value: 1.1 +/- 0.1%); type: functional
PANC-1 [8] = experiment: Cytotoxicity against human PANC-1 cells at less than 10 uM incubated for 7 to 10 days by crystal violet staining based assay; type: functional, cell-based; details: time 7-10 day
HCT-116 [9] = experiment: Induction of cell cycle arrest in human HCT-116 cells assessed as accumulation of cells at S phase at 10 uM incubated for 48 hrs by PI staining based flow cytometry analysis (reference value: 17%); type: functional
PANC-1 [10] = experiment: Cytotoxicity against human PANC-1 cells incubated for 72 hrs by MTT assay; type: functional, cell-based; details: PANC-1, 72 h
HCT-116 [11] = experiment: Induction of cell cycle arrest in human HCT-116 cells at 5 to 20 uM by PI staining based flow cytometry analysis; type: functional; details: dose 5-20 µM, time 24-48 hrs, TDE = time-dependent effect
MCF-10A = experiment: Cytotoxicity against human MCF-10A cells at 50 uM incubated for 72 hrs by MTT assay; type: toxicity, cell-based
HCT-116 [12] = experiment: Induction of DNA double stranded break in human HCT-116 cells assessed as increase in 53BP1 level at 20 uM after 4 to 8 hrs by immunofluorescence assay; type: functional, cell-based; details: time 4-8 hrs
[13] = molecular target: Poly [ADP-ribose] polymerase 1 (Homo sapiens) (UniProt P09874); experiment: Inhibition of recombinant human PARP1 incubated for 10 mins; details: dose 10-30 µM
Sequence of Poly [ADP-ribose] polymerase 1 (Homo sapiens) (P09874 whole entry): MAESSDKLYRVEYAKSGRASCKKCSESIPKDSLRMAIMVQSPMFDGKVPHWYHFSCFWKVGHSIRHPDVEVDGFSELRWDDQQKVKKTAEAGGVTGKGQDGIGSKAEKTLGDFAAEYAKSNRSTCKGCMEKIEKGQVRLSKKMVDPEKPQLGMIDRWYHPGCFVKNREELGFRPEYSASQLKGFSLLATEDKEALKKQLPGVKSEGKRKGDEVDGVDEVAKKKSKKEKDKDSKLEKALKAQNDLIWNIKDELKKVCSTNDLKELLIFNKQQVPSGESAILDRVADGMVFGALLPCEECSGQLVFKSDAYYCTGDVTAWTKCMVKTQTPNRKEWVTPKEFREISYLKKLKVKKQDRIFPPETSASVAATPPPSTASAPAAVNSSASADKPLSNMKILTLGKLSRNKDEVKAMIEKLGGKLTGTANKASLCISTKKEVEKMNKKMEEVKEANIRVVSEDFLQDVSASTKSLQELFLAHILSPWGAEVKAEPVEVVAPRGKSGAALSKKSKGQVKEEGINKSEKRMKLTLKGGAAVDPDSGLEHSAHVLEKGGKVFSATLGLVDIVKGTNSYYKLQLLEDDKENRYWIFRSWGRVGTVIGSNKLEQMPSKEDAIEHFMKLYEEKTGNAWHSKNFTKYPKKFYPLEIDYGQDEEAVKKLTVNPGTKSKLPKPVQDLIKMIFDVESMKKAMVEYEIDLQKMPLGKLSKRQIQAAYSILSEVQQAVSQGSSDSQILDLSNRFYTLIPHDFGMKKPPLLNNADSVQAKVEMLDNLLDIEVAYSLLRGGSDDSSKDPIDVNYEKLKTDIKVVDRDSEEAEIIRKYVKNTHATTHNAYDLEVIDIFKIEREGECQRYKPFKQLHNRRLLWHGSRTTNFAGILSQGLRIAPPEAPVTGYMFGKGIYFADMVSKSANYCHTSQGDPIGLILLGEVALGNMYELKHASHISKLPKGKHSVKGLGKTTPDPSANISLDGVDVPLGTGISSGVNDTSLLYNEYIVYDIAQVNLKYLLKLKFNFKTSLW

[14] = system: DNA topoisomerase 1/Deoxyribonucleic acid (Homo sapiens); experiment: Induction of TOP1-DNA covalent complex degradation in human HCT-116 cells at 20 uM measured upto 24 hrs by RADAR assay; type: cell-based
HCT-116 [15] = experiment: Induction of cell cycle arrest in human HCT-116 cells assessed as accumulation of cells at G2 phase at 5 uM incubated for 48 hrs by PI staining based flow cytometry analysis (reference value: 26%); type: functional
HCT-116 [16] = experiment: Induction of cell cycle arrest in human HCT-116 cells assessed as accumulation of cells at G2 phase at 10 uM incubated for 48 hrs by PI staining based flow cytometry analysis (reference value: 26%); type: functional
[17] = system: DNA topoisomerase 1/Deoxyribonucleic acid (Homo sapiens); experiment: Induction of TOP1-DNA covalent complex stabilization in human HCT-116 cells at 10 to 20 uM after 4 to 6 hrs by RADAR assay; type: cell-based; details: dose 10-20 µM, time 4-6 hrs
HCT-116 [18] = experiment: Induction of cell cycle arrest in human HCT-116 cells assessed as accumulation of cells at Sub-G1 phase at 20 uM incubated for 24 hrs by PI staining based flow cytometry analysis (reference value: 1.1 +/- 0.1%); type: functional
MIA PaCa-2 [19] = experiment: Cytotoxicity against human MIA PaCa-2 cells incubated for 72 hrs by MTT assay; type: functional, cell-based; details: MIA PaCa-2, 72 h
HCT-116 [20] = experiment: Induction of cell cycle arrest in human HCT-116 cells incubated for 24 to 48 hrs by PI staining based flow cytometry analysis; type: functional; details: dose 5-20 µM, time 24-48 hrs
HCT-116 [21] = experiment: Induction of cell cycle arrest in human HCT-116 cells assessed as accumulation of cells at Sub-G1 phase at 10 uM incubated for 24 hrs by PI staining based flow cytometry analysis (reference value: 1.1 +/- 0.1%); type: functional
HCT-116 [22] = experiment: Induction of PARylation in human HCT-116 cells at 1 uM incubated for 4 hrs by Western blotting analysis; type: functional, cell-based
[23] = molecular target: T1, DNA topoisomerase 1 (Homo sapiens) (UniProt P11387); experiment: Inhibition of recombinant human Top1 assessed as reduction in plasmid relaxation at 10 to 20 uM using pUC19 plasmid DNA as substrate measured upto 30 mins by ethidium bromide staining based assay; details: dose 10-20 µM
T1 sequence (whole entry): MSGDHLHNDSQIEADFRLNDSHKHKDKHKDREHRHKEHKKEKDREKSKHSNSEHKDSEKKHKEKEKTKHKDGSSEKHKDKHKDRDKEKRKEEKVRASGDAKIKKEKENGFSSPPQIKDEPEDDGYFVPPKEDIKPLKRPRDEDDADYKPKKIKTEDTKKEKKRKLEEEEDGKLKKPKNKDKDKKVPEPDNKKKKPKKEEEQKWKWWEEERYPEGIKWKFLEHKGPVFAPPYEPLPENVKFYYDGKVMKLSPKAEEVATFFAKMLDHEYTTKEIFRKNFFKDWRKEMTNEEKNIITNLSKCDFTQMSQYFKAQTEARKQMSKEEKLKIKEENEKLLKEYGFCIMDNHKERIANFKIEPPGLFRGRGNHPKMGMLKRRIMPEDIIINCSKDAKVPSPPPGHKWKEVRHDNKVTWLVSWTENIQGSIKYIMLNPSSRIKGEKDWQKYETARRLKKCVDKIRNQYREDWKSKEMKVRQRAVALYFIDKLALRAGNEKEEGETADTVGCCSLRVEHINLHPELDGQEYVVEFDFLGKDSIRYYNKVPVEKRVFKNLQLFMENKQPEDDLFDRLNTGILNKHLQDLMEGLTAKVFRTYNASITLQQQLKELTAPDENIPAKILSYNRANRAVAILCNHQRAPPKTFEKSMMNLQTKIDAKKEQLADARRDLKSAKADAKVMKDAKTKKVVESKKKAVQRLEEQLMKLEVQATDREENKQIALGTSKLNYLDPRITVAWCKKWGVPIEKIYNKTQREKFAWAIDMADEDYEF

HCT-116 [24] = experiment: Induction of cell cycle arrest in human HCT-116 cells assessed as accumulation of cells at G2 phase at 20 uM incubated for 48 hrs by PI staining based flow cytometry analysis (reference value: 26%); type: functional
[25] = Stability in human plasma assessed as compound degradation incubated for 15 mins by HPLC analysis; type: ADME, cell-free; details: read-out: Drug degradation
HCT-116 [26] = experiment: Induction of PARP1 trapping in human HCT-116 cells assessed as change in PARP1 level in chromatin fraction at 20 uM incubated for 4 to 8 hrs by SDS PAGE analysis; type: functional, cell-based; details: time 4-8 hrs
[27] = Stability in human plasma incubated for 2 hrs by HPLC analysis; type: ADME, cell-free; details: read-out: Stability

Activity [5]: Dose-Dependent Effect
inhibition [13]: Dose-Dependent Effect
Activity [14]: Active
Activity [17]: Active
inhibition [23]: Active
metabolised at 0.25 h [25]: 20%
remaining at 2 h [27]: > 70%
Compound: O=C1c2cccc3cccc(c23)C(=O)N1CCSc1nnc(Cn2nc(Cc3ccc(F)cc3)c3ccccc3c2=O)o1
Activity (MIA PaCa-2 [1]): Active
Activity (HCT-116 [2]): 35%
Activity (HCT-116 [3]): 39%
Activity (HCT-116 [4]): Active
Activity (HCT-116 [6]): Active
Activity (HCT-116 [7]): 23.8%
Activity (PANC-1 [8]): Active
Activity (HCT-116 [9]): 33%
IC50 (PANC-1 [10]): 4 µM
Activity (HCT-116 [11]): Tde
Activity (MCF-10A): > 80%
Activity (HCT-116 [12]): Active
Activity (HCT-116 [15]): 29%
Activity (HCT-116 [16]): 32%
Activity (HCT-116 [18]): 39.1%
IC50 (MIA PaCa-2 [19]): 4.5 µM
Activity (HCT-116 [20]): Dose-Dependent Effect
Activity (HCT-116 [21]): 30.8%
Activity (HCT-116 [22]): Active
Activity (HCT-116 [24]): 34%
Activity (HCT-116 [26]): inactive
